In PubChem BioAssay (NCI):
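Protocol summary: plate cells (96-well), add compound at 5 concentrations, incubate 48 h, interpolate endpoints linearly. At the TGI there is no net growth.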

Assays:
Assay in all cases: growth of human tumour cells (NCI), 48 h
IGROV1 ovarian = system: IGROV1 ovarian
RPMI-8226 leukemia = system: RPMI-8226 leukemia
RXF 393 renal = system: RXF 393 renal
SF-295 CNS = system: SF-295 CNS
NCI-H23 lung = system: NCI-H23 lung
SF-268 CNS = system: SF-268 CNS
COLO 205 colon = system: COLO 205 colon
SK-MEL-28 melanoma = system: SK-MEL-28 melanoma
OVCAR-3 ovarian = system: OVCAR-3 ovarian
OVCAR-5 ovarian = system: OVCAR-5 ovarian
EKVX NSCLC = system: EKVX NSCLC
HCT-116 colon = system: HCT-116 colon
SNB-19 CNS = system: SNB-19 CNS
HT29 colon = system: HT29 colon
KM20L2 colon = system: KM20L2 colon
SF-539 CNS = system: SF-539 CNS
MALME-3M melanoma = system: MALME-3M melanoma
SNB-75 CNS = system: SNB-75 CNS
CAKI-1 renal = system: CAKI-1 renal
MOLT-4 leukemia = system: MOLT-4 leukemia
UACC-62 melanoma = system: UACC-62 melanoma
SNB-78 CNS = system: SNB-78 CNS
LOX IMVI melanoma = system: LOX IMVI melanoma
HOP-92 NSCLC = system: HOP-92 NSCLC
ACHN renal = system: ACHN renal
SK-MEL-5 melanoma = system: SK-MEL-5 melanoma
DMS 114 small cell lung = system: DMS 114 small cell lung
SK-MEL-2 melanoma = system: SK-MEL-2 melanoma
XF 498 CNS = system: XF 498 CNS
786-0 renal = system: 786-0 renal
NCI-H460 lung = system: NCI-H460 lung
OVCAR-8 ovarian = system: OVCAR-8 ovarian
M19-MEL melanoma = system: M19-MEL melanoma
UO-31 renal = system: UO-31 renal
NCI-H226 lung = system: NCI-H226 lung
SK-OV-3 ovarian = system: SK-OV-3 ovarian
K-562 leukemia = system: K-562 leukemia
NCI-H522 lung = system: NCI-H522 lung
UACC-257 melanoma = system: UACC-257 melanoma
A498 renal = system: A498 renal
HCT-15 colon = system: HCT-15 colon
DMS 273 small cell lung = system: DMS 273 small cell lung
HL-60(TB) leukemia = system: HL-60(TB) leukemia
A549 NSCLC = system: A549 NSCLC
SN12C renal = system: SN12C renal
TK-10 renal = system: TK-10 renal
M14 melanoma = system: M14 melanoma
OVCAR-4 ovarian = system: OVCAR-4 ovarian
SW-620 colon = system: SW-620 colon
DLD-1 colon = system: DLD-1 colon
LXFL 529 NSCLC = system: LXFL 529 NSCLC
HOP-62 NSCLC = system: HOP-62 NSCLC
KM12 colon = system: KM12 colon
CCRF-CEM leukemia = system: CCRF-CEM leukemia
HCC-2998 colon = system: HCC-2998 colon
HOP-18 NSCLC = system: HOP-18 NSCLC
U251 CNS = system: U251 CNS
SR leukemia = system: SR leukemia

SMILES: CC(C)=CC(=O)Cc1nc2ccc([N+](=O)[O-])cc2[nH]c1=O
- TGI (IGROV1 ovarian): > 100 µM
- TGI (RPMI-8226 leukemia): > 100 µM
- TGI (RXF 393 renal): > 100 µM
- TGI (SF-295 CNS): > 100 µM
- TGI (NCI-H23 lung): > 100 µM
- TGI (SF-268 CNS): > 100 µM
- TGI (COLO 205 colon): > 100 µM
- TGI (SK-MEL-28 melanoma): > 100 µM
- TGI (OVCAR-3 ovarian): > 100 µM
- TGI (OVCAR-5 ovarian): > 100 µM
- TGI (EKVX NSCLC): > 100 µM
- TGI (HCT-116 colon): > 100 µM
- TGI (SNB-19 CNS): > 100 µM
- TGI (HT29 colon): > 100 µM
- TGI (KM20L2 colon): > 100 µM
- TGI (SF-539 CNS): > 100 µM
- TGI (MALME-3M melanoma): > 100 µM
- TGI (SNB-75 CNS): > 100 µM
- TGI (CAKI-1 renal): > 100 µM
- TGI (MOLT-4 leukemia): > 100 µM
- TGI (UACC-62 melanoma): > 100 µM
- TGI (SNB-78 CNS): > 100 µM
- TGI (LOX IMVI melanoma): > 100 µM
- TGI (HOP-92 NSCLC): > 100 µM
- TGI (ACHN renal): > 100 µM
- TGI (SK-MEL-5 melanoma): > 100 µM
- TGI (DMS 114 small cell lung): > 100 µM
- TGI (SK-MEL-2 melanoma): > 100 µM
- TGI (XF 498 CNS): > 100 µM
- TGI (786-0 renal): > 100 µM
- TGI (NCI-H460 lung): > 100 µM
- TGI (OVCAR-8 ovarian): > 100 µM
- TGI (M19-MEL melanoma): > 100 µM
- TGI (UO-31 renal): > 100 µM
- TGI (NCI-H226 lung): > 100 µM
- TGI (SK-OV-3 ovarian): > 100 µM
- TGI (K-562 leukemia): > 100 µM
- TGI (NCI-H522 lung): > 100 µM
- TGI (UACC-257 melanoma): > 100 µM
- TGI (A498 renal): > 100 µM
- TGI (HCT-15 colon): > 100 µM
- TGI (DMS 273 small cell lung): > 100 µM
- TGI (HL-60(TB) leukemia): > 100 µM
- TGI (A549 NSCLC): > 100 µM
- TGI (SN12C renal): > 100 µM
- TGI (TK-10 renal): > 100 µM
- TGI (M14 melanoma): > 100 µM
- TGI (OVCAR-4 ovarian): > 100 µM
- TGI (SW-620 colon): > 100 µM
- TGI (DLD-1 colon): > 100 µM
- TGI (LXFL 529 NSCLC): > 100 µM
- TGI (HOP-62 NSCLC): > 100 µM

SMILES: COc1ccc(Sc2ccccc2N)cc1
- TGI (IGROV1 ovarian): > 100 µM
- TGI (RPMI-8226 leukemia): > 100 µM
- TGI (RXF 393 renal): 75.6 µM
- TGI (SF-295 CNS): > 100 µM
- TGI (NCI-H23 lung): > 100 µM
- TGI (SF-268 CNS): > 100 µM
- TGI (COLO 205 colon): 32.8 µM
- TGI (SK-MEL-28 melanoma): 77.3 µM
- TGI (OVCAR-3 ovarian): > 100 µM
- TGI (OVCAR-5 ovarian): > 100 µM
- TGI (EKVX NSCLC): > 100 µM
- TGI (HCT-116 colon): > 100 µM
- TGI (SNB-19 CNS): > 100 µM
- TGI (HT29 colon): 50.5 µM
- TGI (KM20L2 colon): > 100 µM
- TGI (SF-539 CNS): > 100 µM
- TGI (MALME-3M melanoma): > 100 µM
- TGI (SNB-75 CNS): 62.2 µM
- TGI (MOLT-4 leukemia): > 100 µM
- TGI (UACC-62 melanoma): > 100 µM
- TGI (SNB-78 CNS): 97.3 µM
- TGI (LOX IMVI melanoma): > 100 µM
- TGI (HOP-92 NSCLC): 74.4 µM
- TGI (ACHN renal): > 100 µM
- TGI (SK-MEL-5 melanoma): 62.9 µM
- TGI (DMS 114 small cell lung): > 100 µM
- TGI (SK-MEL-2 melanoma): > 100 µM
- TGI (XF 498 CNS): 40 µM
- TGI (KM12 colon): > 100 µM
- TGI (NCI-H460 lung): > 100 µM
- TGI (OVCAR-8 ovarian): > 100 µM
- TGI (CCRF-CEM leukemia): 83.8 µM
- TGI (M19-MEL melanoma): > 100 µM
- TGI (UO-31 renal): 92.9 µM
- TGI (NCI-H226 lung): 89.4 µM
- TGI (SK-OV-3 ovarian): > 100 µM
- TGI (K-562 leukemia): > 100 µM
- TGI (UACC-257 melanoma): > 100 µM
- TGI (A498 renal): > 100 µM
- TGI (HCT-15 colon): > 100 µM
- TGI (DMS 273 small cell lung): > 100 µM
- TGI (HL-60(TB) leukemia): 60.9 µM
- TGI (A549 NSCLC): > 100 µM
- TGI (HCC-2998 colon): > 100 µM
- TGI (HOP-18 NSCLC): > 100 µM
- TGI (SN12C renal): > 100 µM
- TGI (TK-10 renal): > 100 µM
- TGI (M14 melanoma): > 100 µM
- TGI (OVCAR-4 ovarian): > 100 µM
- TGI (SW-620 colon): > 100 µM
- TGI (DLD-1 colon): > 100 µM
- TGI (LXFL 529 NSCLC): > 100 µM
- TGI (U251 CNS): 49.8 µM
- TGI (SR leukemia): > 100 µM
- TGI (HOP-62 NSCLC): > 100 µM
